For assay [1], the target named is T1, OX1 (Homo sapiens, UniProt O43613).
T1 sequence (O43613 1-425): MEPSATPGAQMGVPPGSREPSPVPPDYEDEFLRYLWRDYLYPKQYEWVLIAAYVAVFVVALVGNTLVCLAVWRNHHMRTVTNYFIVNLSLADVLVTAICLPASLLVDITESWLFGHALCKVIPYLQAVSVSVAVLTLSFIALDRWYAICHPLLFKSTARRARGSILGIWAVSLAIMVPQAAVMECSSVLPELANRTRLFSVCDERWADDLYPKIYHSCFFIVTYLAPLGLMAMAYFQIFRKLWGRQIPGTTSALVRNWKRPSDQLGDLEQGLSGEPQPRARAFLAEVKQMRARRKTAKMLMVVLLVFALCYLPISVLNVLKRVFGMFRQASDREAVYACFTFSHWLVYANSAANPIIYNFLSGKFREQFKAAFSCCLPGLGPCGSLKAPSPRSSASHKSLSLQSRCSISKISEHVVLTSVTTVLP
Kind of assay: Measurement of orexin receptor-binding ability ([125I]-OX-A, cell membranes, OX1). Also on record: expressed in transfected cells; host or cells: CHO cells (membrane preparation).

For assay [2], the system named is mice (C57BL/6NCrlCrLj). Kind of assay: Sleep experiment (EEG/EMG) in mice. The format is in vivo. To be noted: 10 mg/kg. The protocol: As a method for measuring the influence of the present compound on sleep time, electroencephalogram (EEG) and electromyogram (EMG) measurements were carried out in mice (C57BL/6NCrlCrLj).
In order to measure brain waves and muscle signals, EEG and EMG electrode implantation was performed on individual mice, and the mice were then housed in a state in which they could freely move and habituate in individual recording cages for 1 week or longer. Thereafter, amplified EEG and EMG signals were digitally recorded.
Mice received either oral administration of vehicle or test compound in vehicle, after which sleep/wake behavior of mice was recorded for 3 hours.
For sleep analysis, automatic analysis software from Kissei Comtec Co., Ltd. was used to analyze EEG frequency and EMG activity signals in detail and to determine sleep and wake states. Thereafter, accumulated sleeping time over 3 hours was calculated.
The effect of the compound to increase sleep time was evaluated as the difference between sleeping time on the vehicle-administration day and the sleep time on the subsequent drug-administration day.
The minimum effective dose (MED; mg/kg) was obtained from accumulated sleep time of mice with three hours after the administration.

The target in assay [3] is T2, OX2 (Homo sapiens, UniProt O43614).
T2 sequence (O43614 1-444): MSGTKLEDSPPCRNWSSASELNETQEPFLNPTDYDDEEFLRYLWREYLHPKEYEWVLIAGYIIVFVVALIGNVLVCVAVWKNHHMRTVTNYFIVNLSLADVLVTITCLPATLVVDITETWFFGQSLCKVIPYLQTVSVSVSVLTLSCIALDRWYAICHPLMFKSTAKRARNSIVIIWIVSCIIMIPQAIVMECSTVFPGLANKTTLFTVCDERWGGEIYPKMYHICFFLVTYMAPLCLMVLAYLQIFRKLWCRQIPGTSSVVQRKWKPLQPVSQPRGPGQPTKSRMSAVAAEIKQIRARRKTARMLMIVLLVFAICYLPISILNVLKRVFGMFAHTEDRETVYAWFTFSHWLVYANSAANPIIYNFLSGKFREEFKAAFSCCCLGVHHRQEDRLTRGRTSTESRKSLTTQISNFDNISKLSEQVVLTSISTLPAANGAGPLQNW
Briefly: Measurement of orexin receptor-binding ability ([125I]-OX-A, cell membranes, OX2). Conditions: membranes of recombinant CHO cells expressing OX2, 0.2 nM [125I]-OX-A. Also on record: expressed in transfected cells; host or cells: CHO cells (membrane preparation).

The mark [4] stands for this setting: membranes of recombinant CHO cells expressing OX1, 0.2 nM [125I]-OX-A, read-out: OX1 (IC50).
The mark [5] stands for this setting: mice, oral administration, difference to vehicle day, 3 hours.

Molecules are shown by their SMILES. Where two headings read alike, the source gives them in different places.

As for `COc1cc(NC(=O)[C@@H]2C[C@@]2(COc2cnc(C)nc2C)c2ccccc2)ncc1F` [Example 73, (1R,2S)-2-{[(2,4-dimethylpyrimidin-5-yl)oxy]methyl}-N-(5-fluoro-4-methoxypyridin-2-yl)-2-phenylcyclopropanecarboxamide], the values for the IC50 in assay [1] (setting [4]) and in assay [3] (read-out: OX2 (IC50)) were 3.4 nM and 5.7 nM, respectively. For the same compound, in assay [2] (po, 3 h), the “Sleep extended time 10 mg/kg (min/3 hrs)” value came to 22.7 min/3 hrs.

Regarding `Cc1ncc(OC[C@@]2(c3cccc(F)c3)C[C@H]2C(=O)Nc2ccc(C#N)cn2)c(C)n1` [Example 96, (1R,2S)-N-(5-cyanopyridin-2-yl)-2-{[(2,4-dimethylpyrimidin-5-yl)oxy]methyl}-2-(3-fluorophenyl)cyclopropanecarboxamide], the IC50 in assay [1] came to 32 nM; in assay [3] (OX2 (IC50) nM) it was 5 nM. Also, the “Sleep extended time 10 mg/kg (min/3 hrs)” value in assay [2] (setting [5]) came to 12.1 min/3 hrs.

As for `Cc1ncc(OC[C@@]2(c3ccc(F)cc3)C[C@H]2C(=O)Nc2ccc(F)cc2)c(C)n1` [Example 105, (1R,2S)-N,2-bis(4-fluorophenyl)-2-{[(2,4-dimethylpyrimidin-5-yl)oxy]methyl}-N,2-bis(4-fluorophenyl)cyclopropanecarboxamide], the results for the IC50 in assay [1] and in assay [3] (OX2 (IC50) nM) were 195 nM and 18 nM, respectively. Also, the “Sleep extended time 10 mg/kg (min/3 hrs)” value in assay [2] (setting [5]) amounted to 14.3 min/3 hrs.

With `Cc1ncc(NC[C@@]2(c3cccc(F)c3)C[C@H]2C(=O)Nc2ccc(F)cn2)c(C(F)(F)F)n1` [Example 302, (1R,2S)-2-(3-fluorophenyl)-N-(5-fluoropyridin-2-yl)-2-[N-(2-methyl-4-trifluoromethylpyrimidin-5-yl)aminomethyl]cyclopropanecarboxamide], the IC50 was 8 nM in assay [1] (setting [4]) and 3 nM in assay [3] (read-out: OX2 (IC50)).

On to `Cc1ncc(OC[C@@]2(c3ccccc3)C[C@H]2c2nc3cc(F)ccc3[nH]2)c(C)n1` [Example 303, 2-{(1R,2S)-2-{[(2,4-dimethylpyrimidin-5-yl)oxy]methyl}-2-phenylcyclopropyl}-5-fluoro-1H-benzimidazole], for which the IC50 was determined as 75 nM in assay [1] (setting [4]) and 3 nM in assay [3] (read-out: OX2 (IC50)).

In the case of `Cc1ncc(OC[C@@]2(c3cc(F)cc(F)c3)C[C@H]2c2nc3ncc(F)cc3[nH]2)c(C)n1` [Example 306, 2-{(1R,2S)-2-(3,5-difluorophenyl)-2-{[(2,4-dimethylpyrimidin-5-yl)oxy]methyl}cyclopropyl}-6-fluoro-1H-imidazo[4,5-b]pyridine], the IC50 in assay [1] (setting [4]) was 15 nM; in assay [3] (read-out: OX2 (IC50)), 8 nM.

In the case of `Cc1ncc(OC[C@@]2(c3cccc(F)c3)C[C@H]2c2nc3ccccc3c(=O)[nH]2)c(C)n1` [Example 310], the IC50 was determined as 40 nM in assay [1] (setting [4]) and 13 nM in assay [3] (read-out: OX2 (IC50)).

Turning to `Cc1ncc(OC[C@@]2(c3cccc(F)c3)C[C@H]2c2nc3ccc(Cl)cc3c(=O)[nH]2)c(C)n1` [Example 311], the IC50 in assay [1] (setting [4]) was 23 nM; in assay [3] (read-out: OX2 (IC50)), 3.1 nM.

`Cc1ncc(OC[C@@]2(c3cccc(F)c3)C[C@H]2c2nc3ncccc3c(=O)[nH]2)c(C)n1` [Example 312]: the IC50 in assay [1] (setting [4]) came out at 136 nM; in assay [3] (read-out: OX2 (IC50)) it was 62 nM.

For `CCc1ncc(OC[C@@]2(c3ccccc3)C[C@H]2C(=O)Nc2ccc(F)cn2)c(C)n1` [Example 313], the concentration for half-maximal inhibition (IC50) in assay [1] worked out at 224 nM; in assay [3] (OX2 (IC50) nM) it was 107 nM.

Turning to `CCc1nc(C)ncc1OC[C@@]1(c2cccc(F)c2)C[C@H]1C(=O)Nc1ccc(F)cc1` [Example 316, (1R,2S)-2-{[(4-ethyl-2-methylpyrimidin-5-yl)oxy]methyl}-2-(3-fluorophenyl)-N-(4-fluorophenyl)cyclopropanecarboxamide], the IC50 in assay [1] (setting [4]) was 7 nM; in assay [3] (read-out: OX2 (IC50)), 1.1 nM.

`CCc1nc(C)ncc1OC[C@@]1(c2ccccc2)C[C@H]1C(=O)Nc1cncc(OC)c1` [Example 317]: the IC50 in assay [1] (setting [4]) worked out at 451 nM; in assay [3] (read-out: OX2 (IC50)), 20 nM.

As for `CCc1nc(C)ncc1OC[C@@]1(c2ccccc2)C[C@H]1C(=O)Nc1ccc(F)cc1` [Example 318], the IC50 in assay [1] (setting [4]) came to 135 nM; in assay [3] (read-out: OX2 (IC50)), 11 nM.

As for `Cc1ncc(OC[C@@]2(c3cccc(F)c3)C[C@H]2C(=O)Nc2ncc(F)cc2O)c(C)n1` [Example 319, (1R,2S)-2-{{[(2,4-dimethylpyrimidin-5-yl)oxy]methyl}}-N-(5-fluoro-3-hydroxypyridin-2-yl)-2-(3-fluorophenyl)cyclopropanecarboxamide], the IC50 in assay [1] is over 200 nM; in assay [3] (OX2 (IC50) nM), 128 nM.

As for `Cc1ncc(OC[C@@]2(c3cccc(F)c3)C[C@H]2C(=O)Nc2ccc(F)cn2)c(CF)n1` [Example 320, (1R,2S)-2-{[(4-fluoromethyl-2-methylpyrimidin-5-yl)oxy]methyl}-2-(3-fluorophenyl)-N-(5-fluoropyridin-2-yl)cyclopropanecarboxamide], the IC50 came out at 12.3 nM in assay [1] and 2.3 nM in assay [3] (OX2 (IC50) nM).

As for `Cc1ncc(OC[C@@]2(c3ccc(O)c(F)c3)C[C@H]2C(=O)Nc2ccc(F)cn2)c(C)n1` [Example 321, (1R,2S)-2-{[(2,4-dimethylpyrimidin-5-yl)oxy]methyl}-2-(3-fluoro-4-hydroxyphenyl)-N-(5-fluoropyridin-2-yl)cyclopropanecarboxamide], the half-inhibitory concentration (IC50) was 20 nM in assay [1] and 7 nM in assay [3] (OX2 (IC50) nM).

Consider `COc1ccc([C@]2(COc3cnc(C)nc3C)C[C@H]2C(=O)Nc2ccc(F)cn2)cc1F` [Example 322, (1R,2S)-2-{[(2,4-dimethylpyrimidin-5-yl)oxy]methyl}-2-(3-fluoro-4-methoxyphenyl)-N-(5-fluoropyridin-2-yl)cyclopropanecarboxamide], for which the half-inhibitory concentration (IC50) stood at 30 nM in assay [1] and 7 nM in assay [3] (OX2 (IC50) nM).

Regarding `Cc1nc(CO)ncc1OC[C@@]1(c2cccc(F)c2)C[C@H]1C(=O)Nc1ccc(F)cn1` [Example 323, (1R,2S)-2-(3-fluorophenyl)-N-(5-fluoropyridin-2-yl)-2-{[(2-hydroxymethyl-4-methylpyrimidin-5-yl)oxy]methyl}cyclopropanecarboxamide], the results for the half-inhibitory concentration (IC50) in assay [1] and in assay [3] (OX2 (IC50) nM) were 32.6 nM and 2.6 nM, respectively.

With `Cc1ncc(OC[C@@]2(c3cc(F)ccc3O)C[C@H]2C(=O)Nc2ccc(F)cn2)c(C)n1` [Example 324, (1R,2S)-2-{[(2,4-dimethylpyrimidin-5-yl)oxy]methyl}-2-(5-fluoro-2-hydroxyphenyl]-N-(5-fluoropyridin-2-yl)cyclopropanecarboxamide], the IC50 was found to be 113 nM in assay [1] and 5.9 nM in assay [3] (OX2 (IC50) nM).

In the case of `Cc1ncc(OC[C@@]2(c3cccc(F)c3)C[C@H]2C(=O)Nc2ccc(F)c(O)n2)c(C)n1` [Example 325, (1R,2S)-2-{[(2,4-dimethylpyrimidin-5-yl)oxy]methyl}-N-(5-fluoro-6-hydroxypyridin-2-yl)-2-(3-fluorophenyl)cyclopropanecarboxamide], the IC50 in assay [1] amounted to 158 nM; in assay [3] (OX2 (IC50) nM), 20 nM.

`Cc1nc(C)c(OC[C@@]2(c3cccc(F)c3)C[C@H]2C(=O)Nc2ccc(F)cn2)c(=O)[nH]1` [Example 326, (1R,2S)-2-{[(2,4-dimethyl-6-oxo-1,6-dihydropyrimidin-5-yl)oxy]methyl}-2-(3-fluorophenyl)-N-(5-fluoropyridin-2-yl)cyclopropanecarboxamide]: the IC50 in assay [1] was found to be 123 nM; in assay [3] (OX2 (IC50) nM) it was 6 nM.

For the compound `COc1cc(NC(=O)[C@@H]2C[C@@]2(COc2cnc(C)nc2C)c2ccccc2)cnc1F` [Example 327, (1R,2S)-2-{[(2,4-dimethylpyrimidin-5-yl)oxy]methyl}-N-(6-fluoro-5-methoxypyridin-3-yl)-2-phenylcyclopropanecarboxamide], the figures for the IC50 in assay [1] (setting [4]) and in assay [3] (read-out: OX2 (IC50)) were 192 nM and 3 nM, respectively.

Broadly, the IC50 is the concentration that inhibits the measured activity by half.
